Laboratory results from publication PMC5218480 (PLoS ONE, 2017).

Test system: MV-4-11 cells
Assay: Gene expression microarray analysis (Affymetrix PrimeView) and GSEA
Assay type: cell-based, human
Parameters: RFU PODN (11730768_x_at) / Fold change /veh PODN (11730768_x_at) / RFU LINC00158 (11744669_a_at) / Fold change /veh LINC00158 (11744669_a_at) / RFU DUSP10 (11751237_a_at) / Fold change /veh DUSP10 (11751237_a_at) / RFU ID3 (11757404_x_at) / Fold change /veh ID3 (11757404_x_at) / RFU PLEKHG5 (11737974_s_at) / Fold change /veh PLEKHG5 (11737974_s_at) / RFU LRRC4B (11730491_at) / Fold change /veh LRRC4B (11730491_at) / RFU GIMAP4 (11747438_a_at) / Fold change /veh GIMAP4 (11747438_a_at) / RFU KRT8 (11758183_x_at) / Fold change /veh KRT8 (11758183_x_at) / RFU CNN1 (11734310_a_at) / Fold change /veh CNN1 (11734310_a_at) / RFU VPS37D (11726825_at) / Fold change /veh VPS37D (11726825_at) / RFU C10orf10 (11716522_x_at) / Fold change /veh C10orf10 (11716522_x_at) / RFU KIR2DL2 /// KIR2DL4 /// KIR2DL5A /// KIR2DL5B /// KIR2DS1 /// KIR2DS2 /// KIR2DS3 /// KIR2DS4 /// KIR3DL3 /// KIR3DL3 /// KIR3DS1 (11738374_at) / Fold change /veh KIR2DL2 /// KIR2DL4 /// KIR2DL5A /// KIR2DL5B /// KIR2DS1 /// KIR2DS2 /// KIR2DS3 /// KIR2DS4 /// KIR3DL3 /// KIR3DL3 /// KIR3DS1 (11738374_at) / RFU C1QL1 (11718748_at) / Fold change /veh C1QL1 (11718748_at) / RFU TMPRSS4 (11747572_a_at) / Fold change /veh TMPRSS4 (11747572_a_at) / RFU HAMP (11756126_x_at) / Fold change /veh HAMP (11756126_x_at) / RFU RNFT2 (11725882_a_at) / Fold change /veh RNFT2 (11725882_a_at) / RFU NR4A2 (11747474_a_at) / Fold change /veh NR4A2 (11747474_a_at) / RFU ABCC12 (11746883_a_at) / Fold change /veh ABCC12 (11746883_a_at) / RFU TMEM136 (11760407_x_at) / Fold change /veh TMEM136 (11760407_x_at) / RFU CLDN22 /// WWC2 (11732394_at) / Fold change /veh CLDN22 /// WWC2 (11732394_at) / RFU HLA-DPB1 (11760878_x_at) / Fold change /veh HLA-DPB1 (11760878_x_at) / RFU SPINT1 (11716480_a_at) / Fold change /veh SPINT1 (11716480_a_at) / RFU GAP43 (11754022_s_at) / Fold change /veh GAP43 (11754022_s_at) / RFU A4GNT (11735810_at) / Fold change /veh A4GNT (11735810_at) / RFU PRB3 (11715151_x_at) / Fold change /veh PRB3 (11715151_x_at) / RFU TUBB4B (11761932_at) / Fold change /veh TUBB4B (11761932_at) / RFU CAPN14 (11732068_a_at) / Fold change /veh CAPN14 (11732068_a_at) / RFU TMCC2 (11721928_a_at) / Fold change /veh TMCC2 (11721928_a_at) / RFU IRGQ (11745062_a_at) / Fold change /veh IRGQ (11745062_a_at) / RFU FAM174B (11720279_a_at) / Fold change /veh FAM174B (11720279_a_at) / RFU TMPRSS4 (11748680_a_at) / Fold change /veh TMPRSS4 (11748680_a_at) / RFU FAM212B (11763350_a_at) / Fold change /veh FAM212B (11763350_a_at) / RFU PLEKHG5 (11743358_a_at) / Fold change /veh PLEKHG5 (11743358_a_at) / RFU ZSCAN30 (11745921_a_at) / Fold change /veh ZSCAN30 (11745921_a_at) / RFU CMKLR1 (11741424_a_at) / Fold change /veh CMKLR1 (11741424_a_at) / RFU LOC101060620 /// MAPK8IP1 (11723275_at) / Fold change /veh LOC101060620 /// MAPK8IP1 (11723275_at) / RFU SPTSSB (11747773_x_at) / Fold change /veh SPTSSB (11747773_x_at) / RFU PRSS12 (11739890_at) / Fold change /veh PRSS12 (11739890_at) / RFU BIN1 (11741810_x_at) / Fold change /veh BIN1 (11741810_x_at) / RFU WNT11 (11732464_a_at) / Fold change /veh WNT11 (11732464_a_at) / RFU C10orf10 (11716521_a_at) / Fold change /veh C10orf10 (11716521_a_at) / RFU C5orf56 (11738089_at) / Fold change /veh C5orf56 (11738089_at) / RFU CYB561 (11721691_x_at) / Fold change /veh CYB561 (11721691_x_at) / RFU ANKRD19P (11752326_a_at) / Fold change /veh ANKRD19P (11752326_a_at) / RFU OR2T12 /// OR2T33 /// OR2T8 (11738714_s_at) / Fold change /veh OR2T12 /// OR2T33 /// OR2T8 (11738714_s_at) / RFU VCAN (11748164_a_at) / Fold change /veh VCAN (11748164_a_at) / RFU JSRP1 (11732532_at) / Fold change /veh JSRP1 (11732532_at) / RFU KRTAP10-11 (11738290_x_at) / Fold change /veh KRTAP10-11 (11738290_x_at) / RFU MYO3A (11730013_a_at) / Fold change /veh MYO3A (11730013_a_at) / RFU EBF3 (11725865_a_at) / Fold change /veh EBF3 (11725865_a_at) / RFU CAMK2N1 (11719241_x_at) / Fold change /veh CAMK2N1 (11719241_x_at) / RFU C5orf56 (11738088_a_at) / Fold change /veh C5orf56 (11738088_a_at) / RFU OLFML3 (11715873_a_at) / Fold change /veh OLFML3 (11715873_a_at) / RFU LOC100653217 /// NTM (11731650_a_at) / Fold change /veh LOC100653217 /// NTM (11731650_a_at) / RFU MAPK11 (11762145_a_at) / Fold change /veh MAPK11 (11762145_a_at) / RFU FIZ1 (11724087_x_at) / Fold change /veh FIZ1 (11724087_x_at) / RFU OASL (11726364_x_at) / Fold change /veh OASL (11726364_x_at) / RFU SOX15 (11748057_x_at) / Fold change /veh SOX15 (11748057_x_at) / RFU CD79A (11719716_a_at) / Fold change /veh CD79A (11719716_a_at) / RFU HIST1H1D (11736915_at) / Fold change /veh HIST1H1D (11736915_at) / RFU CASKIN2 (11723855_a_at) / Fold change /veh CASKIN2 (11723855_a_at) / RFU LOC730098 (11760151_x_at) / Fold change /veh LOC730098 (11760151_x_at) / RFU OR4N2 (11742367_at) / Fold change /veh OR4N2 (11742367_at) / RFU PRRT2 (11749266_a_at) / Fold change /veh PRRT2 (11749266_a_at) / RFU SNX32 (11753110_a_at) / Fold change /veh SNX32 (11753110_a_at) / RFU CDHR5 (11726645_a_at) / Fold change /veh CDHR5 (11726645_a_at) / RFU RCAN1 (11760418_a_at) / Fold change /veh RCAN1 (11760418_a_at) / RFU FAM167A (11723789_a_at) / Fold change /veh FAM167A (11723789_a_at) / RFU FAM26E (11764081_at) / Fold change /veh FAM26E (11764081_at) / RFU ISYNA1 (11749810_s_at) / Fold change /veh ISYNA1 (11749810_s_at) / RFU ACY1 (11761880_at) / Fold change /veh ACY1 (11761880_at) / RFU 11764098_at / Fold change /veh 11764098_at / RFU SAMD14 (11745864_x_at) / Fold change /veh SAMD14 (11745864_x_at) / RFU NPB (11741838_a_at) / Fold change /veh NPB (11741838_a_at) / RFU TMPRSS6 (11731388_a_at) / Fold change /veh TMPRSS6 (11731388_a_at) / RFU KRTAP10-2 (11738614_at) / Fold change /veh KRTAP10-2 (11738614_at) / RFU ARHGAP8 /// PRR5-ARHGAP8 (11727945_x_at) / Fold change /veh ARHGAP8 /// PRR5-ARHGAP8 (11727945_x_at) / RFU KRTAP5-7 /// NADSYN1 (11734609_at) / Fold change /veh KRTAP5-7 /// NADSYN1 (11734609_at) / RFU RASL12 (11751679_a_at) / Fold change /veh RASL12 (11751679_a_at) / RFU CDKN2B (11736163_a_at) / Fold change /veh CDKN2B (11736163_a_at) / RFU PRF1 (11729649_at) / Fold change /veh PRF1 (11729649_at) / RFU, ZNF638 /// ZNF638-IT1 / Fold change vs veh, ZNF638 /// ZNF638-IT1 / RFU, PANK3 / Fold change vs veh, PANK3 / RFU, SH3YL1 / Fold change vs veh, SH3YL1 / RFU, ZEB2 / Fold change vs veh, ZEB2 / RFU, NRIP1 / Fold change vs veh, NRIP1 / RFU, PTTG1IP / Fold change vs veh, PTTG1IP / RFU, CAPN2 / Fold change vs veh, CAPN2 / RFU, MED14 / Fold change vs veh, MED14 / RFU, SNORA58 / Fold change vs veh, SNORA58 / RFU, C1orf63 / Fold change vs veh, C1orf63 / RFU, LRRFIP1 / Fold change vs veh, LRRFIP1 / RFU, NDUFAF7 / Fold change vs veh, NDUFAF7 / RFU, SLC12A2 / Fold change vs veh, SLC12A2 / RFU, IBTK / Fold change vs veh, IBTK / RFU, ESF1 / Fold change vs veh, ESF1 / Fold change vs veh, TMEM50B / RFU, TAOK1 / Fold change vs veh, TAOK1 / RFU, ACBD3 / Fold change vs veh, ACBD3 / RFU, TMA16 / Fold change vs veh, TMA16 / RFU, RWDD3 / Fold change vs veh, RWDD3 / RFU, BCAT1 / Fold change vs veh, BCAT1 / RFU, EDEM3 / Fold change vs veh, EDEM3 / RFU, TMEM33 / Fold change vs veh, TMEM33 / RFU, WDR75 / Fold change vs veh, WDR75 / RFU, AHCTF1 / Fold change vs veh, AHCTF1 / RFU, TFRC / Fold change vs veh, TFRC / RFU, ZDHHC17 / Fold change vs veh, ZDHHC17 / RFU, NOM1 / Fold change vs veh, NOM1 / RFU, ARL8B / Fold change vs veh, ARL8B / RFU, ZBTB11 / Fold change vs veh, ZBTB11 / RFU, TAMM41 / Fold change vs veh, TAMM41 / RFU, KIAA1704 /// LOC100996395 / Fold change vs veh, KIAA1704 /// LOC100996395 / RFU, ING1 / Fold change vs veh, ING1 / RFU, TRMT61B / Fold change vs veh, TRMT61B / RFU, FUBP3 / Fold change vs veh, FUBP3 / RFU, TP53 / Fold change vs veh, TP53 / RFU, TNKS2 / Fold change vs veh, TNKS2 / RFU, ZFP14 / Fold change vs veh, ZFP14 / RFU, ACTR2 / Fold change vs veh, ACTR2 / RFU, PPP3R1 / Fold change vs veh, PPP3R1 / RFU, PIK3R1 / Fold change vs veh, PIK3R1 / RFU, HNRNPA1 / Fold change vs veh, HNRNPA1 / RFU, RNF170 / Fold change vs veh, RNF170 / RFU, ZNF28 / Fold change vs veh, ZNF28 / RFU, RNGTT / Fold change vs veh, RNGTT / RFU, OGT / Fold change vs veh, OGT / RFU, BRD1 / Fold change vs veh, BRD1 / RFU, MARS / Fold change vs veh, MARS / RFU, ZNF655 / Fold change vs veh, ZNF655 / RFU, FAHD1 / Fold change vs veh, FAHD1 / RFU, BDP1 / Fold change vs veh, BDP1 / RFU, LRRCC1 / Fold change vs veh, LRRCC1 / RFU, ARID1A / Fold change vs veh, ARID1A / RFU, ZNF146 / Fold change vs veh, ZNF146 / RFU, ZNF330 / Fold change vs veh, ZNF330 / RFU, GPN3 / Fold change vs veh, GPN3 / RFU, C9orf123 / Fold change vs veh, C9orf123 / RFU, N4BP2L2 / Fold change vs veh, N4BP2L2 / RFU, ARFIP1 / Fold change vs veh, ARFIP1 / RFU, FAM179B / Fold change vs veh, FAM179B / RFU, BCL10 / Fold change vs veh, BCL10 / RFU, UHRF1BP1L / Fold change vs veh, UHRF1BP1L / RFU, BET1 / Fold change vs veh, BET1 / RFU, CNOT2 / Fold change vs veh, CNOT2 / RFU, ZNF268 / Fold change vs veh, ZNF268 / Fold change vs veh, ZNF507 / RFU, DGCR2 / Fold change vs veh, DGCR2 / RFU, WDSUB1 / Fold change vs veh, WDSUB1 / Fold change vs veh, HSP90B1 /// MIR3652 / RFU, ADSS / Fold change vs veh, ADSS / RFU, GK / Fold change vs veh, GK / RFU, ZNF148 / Fold change vs veh, ZNF148 / RFU, TAF9 / Fold change vs veh, TAF9 / RFU, SLC1A5 / Fold change vs veh, SLC1A5 / RFU, SLMO2 / Fold change vs veh, SLMO2 / RFU, ABCC4 / Fold change vs veh, ABCC4 / RFU, LOC101060439 /// RAP1B / Fold change vs veh, LOC101060439 /// RAP1B / RFU, RFX7 / Fold change vs veh, RFX7 / RFU, GTPBP10 / Fold change vs veh, GTPBP10 / RFU, CNEP1R1 / Fold change vs veh, CNEP1R1 / RFU, BIVM-ERCC5 /// ERCC5 / Fold change vs veh, BIVM-ERCC5 /// ERCC5 / RFU, ILF3 / Fold change vs veh, ILF3 / RFU 11762660_at / Fold change /veh 11762660_at / RFU VCAN (11757783_s_at) / Fold change /veh VCAN (11757783_s_at) / RFU DDX43 (11728927_at) / Fold change /veh DDX43 (11728927_at) / RFU KRT8 (11758188_x_at) / Fold change /veh KRT8 (11758188_x_at) / RFU NKD1 (11759106_at) / Fold change /veh NKD1 (11759106_at) / RFU SRD5A1 (11742802_a_at) / Fold change /veh SRD5A1 (11742802_a_at) / RFU TPSAB1 /// TPSB2 (11721975_s_at) / Fold change /veh TPSAB1 /// TPSB2 (11721975_s_at) / RFU GSTM3 (11746129_a_at) / Fold change /veh GSTM3 (11746129_a_at) / RFU IL23R (11737362_x_at) / Fold change /veh IL23R (11737362_x_at) / RFU TMEM51 (11727254_a_at) / Fold change /veh TMEM51 (11727254_a_at) / RFU PIWIL2 (11732686_x_at) / Fold change /veh PIWIL2 (11732686_x_at) / RFU ORM1 (11744905_x_at) / Fold change /veh ORM1 (11744905_x_at) / RFU CCDC152 (11743942_at) / Fold change /veh CCDC152 (11743942_at) / RFU ECM1 (11717891_a_at) / Fold change /veh ECM1 (11717891_a_at) / RFU IL23R (11748794_a_at) / Fold change /veh IL23R (11748794_a_at) / RFU TNFAIP8L3 (11732012_x_at) / Fold change /veh TNFAIP8L3 (11732012_x_at) / RFU MBOAT4 (11741988_at) / Fold change /veh MBOAT4 (11741988_at) / RFU 11764193_at / Fold change /veh 11764193_at / RFU TMEM53 (11763286_at) / Fold change /veh TMEM53 (11763286_at) / RFU MAGEB2 (11727129_at) / Fold change /veh MAGEB2 (11727129_at) / RFU TMEM200A (11744735_a_at) / Fold change /veh TMEM200A (11744735_a_at) / RFU CCDC152 (11751479_a_at) / Fold change /veh CCDC152 (11751479_a_at) / RFU FAM211A (11726209_a_at) / Fold change /veh FAM211A (11726209_a_at) / RFU RGS16 (11746705_a_at) / Fold change /veh RGS16 (11746705_a_at) / RFU VCAN (11755009_s_at) / Fold change /veh VCAN (11755009_s_at) / RFU RHOB (11743442_s_at) / Fold change /veh RHOB (11743442_s_at) / RFU RGS16 (11720943_a_at) / Fold change /veh RGS16 (11720943_a_at) / RFU RGS16 (11720944_at) / Fold change /veh RGS16 (11720944_at) / RFU, VPS4B / Fold change vs veh, VPS4B / RFU, CREB1 / Fold change vs veh, CREB1 / RFU, DNAJC13 / Fold change vs veh, DNAJC13 / RFU, GNAQ / Fold change vs veh, GNAQ / RFU, CDK5R1 / Fold change vs veh, CDK5R1 / RFU, ZRANB3 / Fold change vs veh, ZRANB3 / RFU, CUL4A / Fold change vs veh, CUL4A / RFU, CCNY / Fold change vs veh, CCNY / RFU, UFL1 / Fold change vs veh, UFL1 / RFU, COG3 / Fold change vs veh, COG3 / RFU, DIAPH2 / Fold change vs veh, DIAPH2 / RFU, SKA2 / Fold change vs veh, SKA2 / RFU, AFF3 / Fold change vs veh, AFF3 / RFU, LMF1 / Fold change vs veh, LMF1 / RFU, IPO11 / Fold change vs veh, IPO11 / RFU, DFFB / Fold change vs veh, DFFB / RFU, FOXP1 / Fold change vs veh, FOXP1 / RFU, CARD8 / Fold change vs veh, CARD8 / RFU, STRN3 / Fold change vs veh, STRN3 / RFU, ADK / Fold change vs veh, ADK / RFU, RASSF2 / Fold change vs veh, RASSF2 / RFU, WIPF1 / Fold change vs veh, WIPF1 / RFU, LARP1B / Fold change vs veh, LARP1B / RFU, RASA1 / Fold change vs veh, RASA1 / RFU, RB1 / Fold change vs veh, RB1 / RFU, PPFIA1 / Fold change vs veh, PPFIA1 / RFU, MAT2A / Fold change vs veh, MAT2A / RFU, CCT5 / Fold change vs veh, CCT5 / RFU, WDR92 / Fold change vs veh, WDR92 / RFU, CUX1 / Fold change vs veh, CUX1 / RFU, TTC7A / Fold change vs veh, TTC7A / RFU, TMEM135 / Fold change vs veh, TMEM135 / RFU, DEPTOR / Fold change vs veh, DEPTOR / RFU, CPM / Fold change vs veh, CPM / RFU, DNAJB6 / Fold change vs veh, DNAJB6 / RFU, CACNA2D3 / Fold change vs veh, CACNA2D3 / RFU, DTX4 / Fold change vs veh, DTX4 / RFU, TFCP2 / Fold change vs veh, TFCP2 / RFU, GMCL1 /// GMCL1P1 / Fold change vs veh, GMCL1 /// GMCL1P1 / RFU, AEBP2 / Fold change vs veh, AEBP2 / RFU, SNHG1 /// SNORD22 /// SNORD25 /// SNORD26 /// SNORD27 /// SNORD28 /// SNORD29 /// SNORD31 / Fold change vs veh, SNHG1 /// SNORD22 /// SNORD25 /// SNORD26 /// SNORD27 /// SNORD28 /// SNORD29 /// SNORD31 / Fold change (Aza/veh), C12orf56 (ProbeSet 11735607_a_at) / Fold change (ACY-1035/veh), C12orf56 (ProbeSet 11735607_a_at) / Fold change (Aza/veh), FGFR1OP (ProbeSet 11751329_s_at) / Fold change (ACY-1035/veh), FGFR1OP (ProbeSet 11751329_s_at) / Fold change (Aza/veh), VPS36 (ProbeSet 11739960_a_at) / Fold change (ACY-1035/veh), VPS36 (ProbeSet 11739960_a_at) / RFU SYPL1 (11715823_x_at) / Fold change /veh SYPL1 (11715823_x_at) / RFU IGFBP7 (11715501_s_at) / Fold change /veh IGFBP7 (11715501_s_at) / RFU REEP3 (11722064_at) / Fold change /veh REEP3 (11722064_at) / RFU IGLL1 (11728026_x_at) / Fold change /veh IGLL1 (11728026_x_at): dose or concentration left out as unconfirmed
Conditions: ProbeSet 11733108_at; LIST D

Nc1ccc(-c2cccs2)cc1NC(=O)c1ccc2c(c1)cc(C1CC1)n2CCN1CCOCC1 [ACY-1035]
Fold change vs veh, GNAQ: 0.91
